Results from US20230391781A1, “MALT1 MODULATORS AND USES THEREOF” (Rheos Medicines, Inc., priority 2020, published 2023).

How the values were obtained:
full length MALT1 = full length MALT1 (Homo sapiens (Human), UniProt Q9UDY8); assay: MALT1 Biochemical Assay; details: 15 nM enzyme, 30 μM peptide substrate Ac-Leu-Arg-Ser-Arg-Rh110-dPro, 30 min pre-incubation, 60 min reaction; mean value if tested more than once
Description: Inhibitor potency was evaluated by measuring enzymatic activity of full length MALT1 at varying concentrations of compound. The enzymatic assay consists of a single substrate reaction that monitors the release of a fluorescent dye upon cleavage of the peptide substrate. […] The assay buffer consists of 50 mM Hepes, pH 7.5, 0.8 M sodium citrate, 1 mM DTT, 0.004% tween-20, and 0.005% bovine serum albumin (BSA). […] The reaction was quenched after 60 minutes with the addition of iodoacetate at a final concentration of 10 mM. Total fluorescence was measured using an Envision (PerkinElmer) with fluorescence excitation at 485 nm and emission at […].
For potency determination, 1 μL of serially diluted compound (in 100% DMSO) was pre-incubated with 40 μL of enzyme for 30 minutes. The reaction was initiated with the addition of 10 μL of peptide substrate. The relative fluorescence units were transformed to percent inhibition by using 0% and 100% inhibition controls as reference. […] IC50 values were calculated by fitting the concentration-response curves to a four-parameter logistic equation in GraphPad Prism.

[1] = system: IL-2 in Jurkat (ATCC, clone E6.1) cells stimulated with anti-CD3/28/2; assay: Jurkat IL-2 Assay; format: cell-based; details: Homo sapiens; IL-2 inhibition, Jurkat cells, 30 min compound then anti-CD3/28/2 stimulation for 24 hours; mean value if tested more than once; read-out: IC50
Description: Inhibition was determined in a cell-based assay using Jurkat (ATCC, clone E6.1), an immortalized T-cell line, exposed to a dose response of compound and assessed for viability, and Il-2 inhibition by ELISA. Cells were cultured in RPMI/10% FBS (Invitrogen 11875093, Atlanta Biologicals S12450H), maintained below 3E6/mL and only used in assays while below passage 25. Compounds were stamped by ECHO onto 384w plates (PerkinElmer Culturplate, 6007680). The cells were plated in fresh media on top of compound and incubated for 30 minutes before stimulation with soluble anti-CD3/28/2 (Stemcell, 10970) for 24 hours. Supernatant was collected and assessed for Il-2 (MSD, 384w, L21SA-1). To assess viability of cells treated with compound, cells were lysed with CTG reagent (Promega, G7570), and measured by luminometer. […] IC50s calculated using 4-parameter fit in GraphPad Prism.
In this table, “A” indicates IC50 of less than 0.1 μM; “B” indicates IC50 from 0.1 μM up to 1 μM; and “C” indicates IC50 of greater than 1 μM. “N/A” indicates not tested. For a compound that was tested in more than one experiment, the result shown represents the mean value.

full length MALT1, sequence (Q9UDY8 whole entry): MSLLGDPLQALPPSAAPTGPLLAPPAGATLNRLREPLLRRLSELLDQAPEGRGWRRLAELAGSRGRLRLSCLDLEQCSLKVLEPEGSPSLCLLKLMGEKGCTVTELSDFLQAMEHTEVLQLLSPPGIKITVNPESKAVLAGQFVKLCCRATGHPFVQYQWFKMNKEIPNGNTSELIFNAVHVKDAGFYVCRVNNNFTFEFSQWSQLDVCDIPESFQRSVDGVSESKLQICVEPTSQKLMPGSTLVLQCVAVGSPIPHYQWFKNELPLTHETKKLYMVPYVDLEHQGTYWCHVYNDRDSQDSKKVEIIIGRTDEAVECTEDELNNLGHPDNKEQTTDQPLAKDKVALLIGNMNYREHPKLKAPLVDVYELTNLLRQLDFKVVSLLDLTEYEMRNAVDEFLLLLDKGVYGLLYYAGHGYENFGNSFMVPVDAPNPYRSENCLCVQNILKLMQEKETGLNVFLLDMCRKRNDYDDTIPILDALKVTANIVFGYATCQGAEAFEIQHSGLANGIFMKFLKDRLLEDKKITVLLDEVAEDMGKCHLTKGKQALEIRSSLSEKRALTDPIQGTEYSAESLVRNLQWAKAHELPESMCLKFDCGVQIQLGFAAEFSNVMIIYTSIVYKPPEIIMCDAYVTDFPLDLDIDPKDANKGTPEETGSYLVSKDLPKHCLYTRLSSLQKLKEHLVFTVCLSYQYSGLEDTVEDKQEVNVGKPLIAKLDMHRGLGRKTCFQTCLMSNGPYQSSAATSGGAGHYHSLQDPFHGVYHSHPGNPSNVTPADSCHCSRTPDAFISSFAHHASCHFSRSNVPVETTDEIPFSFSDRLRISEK

SMILES | IC50 (full length MALT1) [nM] | IC50 [1] [nM]
CO[C@@H](C)c1c(Nc2ccc([C@H](N(C)C(=O)C3CCCCO3)C(F)(F)F)cc2)cnc2nc(Cl)nn12 (stereo partly drawn) [Compound 1.3, N-[(1S)-1-[4-({2-chloro-7-[(1S)-1-methoxyethyl]-[1,2,4]triazolo[1,5-a]pyrimidin-6-yl}amino)phenyl]-2,2,2-trifluoroethyl]-N-methyloxane-2-carboxamide] | 100 to 1000 | 100 to 1000
COC(=O)[C@H]1CC[C@H](C(=O)N(C)[C@@H](c2ccc(Nc3cnc4nc(Cl)nn4c3[C@H](C)OC)cc2)C(F)(F)F)CC1 [Compound 1.4, methyl(1r,4r)-4-{[(1S)-1-[4-({2-chloro-7-[(1S)-1-methoxyethyl]-[1,2,4]triazolo[1,5-a]pyrimidin-6-yl}amino)phenyl]-2,2,2-trifluoroethyl] (methyl)carbamoyl}cyclohexane-1-carboxylate] | 100 to 1000 | 100 to 1000
CO[C@@H](C)c1c(Nc2ccc([C@H](N(C)C(=O)[C@H]3C[C@H](C#N)C3)C(F)(F)F)cc2)cnc2nc(Cl)nn12 [Compound 1.9, (1r,3S)—N—((S)-1-(4-((2-chloro-7-((S)-1-methoxyethyl)-[1,2,4]triazolo[1,5-a]pyrimidin-6-yl)amino)phenyl)-2,2,2-trifluoroethyl)-3-cyano-N-methylcyclobutane-1-carboxamide] | 100 to 1000 | 100 to 1000
CO[C@@H](C)c1c(Nc2ccc([C@H](N(C)C(=O)C3CCN(C(=O)OC(C)(C)C)CC3)C(F)(F)F)cc2)cnc2nc(Cl)nn12 [Compound 1.10, tert-butyl 4-{[(1S)-1-[4-({2-chloro-7-[(1S)-1-methoxyethyl]-[1,2,4]triazolo[1,5-a]pyrimidin-6-yl}amino)phenyl]-2,2,2-trifluoroethyl](methyl)carbamoyl}piperidine-1-carboxylate] | 100 to 1000 | 100 to 1000
CO[C@@H](C)c1c(Nc2ccc([C@H](N(C)C(=O)C3CCCN(C(=O)OC(C)(C)C)C3)C(F)(F)F)cc2)cnc2nc(Cl)nn12 (stereo partly drawn) [Compound 1.11, Tert-butyl 3-{[(1S)-1-[4-({2-chloro-7-[(1S)-1-methoxyethyl]-[1,2,4]triazolo[1,5-a]pyrimidin-6-yl}amino)phenyl]-2,2,2-trifluoroethyl](methyl)carbamoyl}piperidine-1-carboxylate] | 100 to 1000 | > 1000
CO[C@@H](C)c1c(Nc2ccc([C@H](N(C)C(=O)C3CCN(C(=O)OC(C)(C)C)C3)C(F)(F)F)cc2)cnc2nc(Cl)nn12 (stereo partly drawn) [Compound 1.12, Tert-butyl 3-{[(1S)-1-[4-({2-chloro-7-[(1S)-1-methoxyethyl]-[1,2,4]triazolo[1,5-a]pyrimidin-6-yl}amino)phenyl]-2,2,2-trifluoroethyl](methyl)carbamoyl}pyrrolidine-1-carboxylate] | 100 to 1000 | > 1000
CO[C@@H](C)c1c(Nc2ccc([C@H](N(C)C(=O)C3CCC(CNC(=O)OC(C)(C)C)CC3)C(F)(F)F)cc2)cnc2nc(Cl)nn12 (stereo partly drawn) [Compound 1.13, tert-butyl N-[(4-{[(1S)-1-[4-({2-chloro-7-[(1S)-1-methoxyethyl]-[1,2,4]triazolo[1,5-a]pyrimidin-6-yl}amino)phenyl]-2,2,2-trifluoroethyl](methyl)carbamoyl}cyclohexyl)methyl]carbamate] | 100 to 1000 | 100 to 1000
CO[C@@H](C)c1c(Nc2ccc(C(C)N(C)C(=O)C3CCC3)cc2)cnc2nc(Cl)nn12 (stereo partly drawn) [Compound 1.20, N-{1-[4-({2-chloro-7-[(1S)-1-methoxyethyl]-[1,2,4]triazolo[1,5-a]pyrimidin-6-yl}amino)phenyl]ethyl}-N-methylcyclobutanecarboxamide] | > 1000 | > 1000
CO[C@@H](C)c1c(Nc2ccc(C(C)N(C)C(=O)C3CCCCC3)cc2)cnc2nc(Cl)nn12 (stereo partly drawn) [Compound 1.21, N-{1-[4-({2-chloro-7-[(1S)-1-methoxyethyl]-[1,2,4]triazolo[1,5-a]pyrimidin-6-yl}amino)phenyl]ethyl}-N-methylcyclohexanecarboxamide] | > 1000 | > 1000
CO[C@@H](C)c1c(Nc2ccc(C(C)N(C)C(=O)C3CCCC3)cc2)cnc2nc(Cl)nn12 (stereo partly drawn) [Compound 1.22, N-{1-[4-({2-chloro-7-[(1S)-1-methoxyethyl]-[1,2,4]triazolo[1,5-a]pyrimidin-6-yl}amino)phenyl]ethyl}-N-methylcyclopentanecarboxamide] | > 1000 | > 1000
CO[C@@H](C)c1c(Nc2ccc(C(C)N(C)C(=O)C3CC3)cc2)cnc2nc(Cl)nn12 (stereo partly drawn) [Compound 1.23, N-{1-[4-({2-chloro-7-[(1S)-1-methoxyethyl]-[1,2,4]triazolo[1,5-a]pyrimidin-6-yl}amino)phenyl]ethyl}-N-methylcyclopropanecarboxamide] | > 1000 | > 1000
CO[C@@H](C)c1c(Nc2ccc(C(C)N(C)C(C)=O)cc2)cnc2nc(Cl)nn12 (stereo partly drawn) [Compound 1.24, N-{1-[4-({2-chloro-7-[(1S)-1-methoxyethyl]-[1,2,4]triazolo[1,5-a]pyrimidin-6-yl}amino)phenyl]ethyl}-N-methylacetamide] | > 1000 | > 1000
CO[C@@H](C)c1c(Nc2ccc(C(N(C)C(C)=O)C(F)(F)F)cc2)cnc2nc(Cl)nn12 (stereo partly drawn) [Compound 1.25, N-{1-[4-({2-chloro-7-[(1S)-1-methoxyethyl]-[1,2,4]triazolo[1,5-a]pyrimidin-6-yl}amino)phenyl]-2,2,2-trifluoroethyl}-N-methylacetamide] | 100 to 1000 | > 1000

Next, values leading:

IC50 (full length MALT1) [nM] | IC50 [1] [nM] | SMILES
100 to 1000 | 100 to 1000 | CO[C@@H](C)c1c(Nc2ccc([C@H](N(C)C(C)=O)C(F)(F)F)cc2)cnc2nc(Cl)nn12 [Compound 1.2, N-[(1S)-1-[4-({2-chloro-7-[(1S)-1-methoxyethyl]-[1,2,4]triazolo[1,5-a]pyrimidin-6-yl}amino)phenyl]-2,2,2-trifluoroethyl]-N-methylacetamide]
< 100 | 100 to 1000 | CO[C@@H](C)c1c(Nc2ccc([C@H](N(C)C(=O)C3CCSCC3)C(F)(F)F)cc2)cnc2nc(Cl)nn12 [Compound 1.5, N-[(1S)-1-[4-({2-chloro-7-[(1S)-1-methoxyethyl]-[1,2,4]triazolo[1,5-a]pyrimidin-6-yl}amino)phenyl]-2,2,2-trifluoroethyl]-N-methylthiane-4-carboxamide]
< 100 | 100 to 1000 | CO[C@@H](C)c1c(Nc2ccc([C@H](N(C)C(=O)C3CCOC3)C(F)(F)F)cc2)cnc2nc(Cl)nn12 (stereo partly shown) [Compound 1.6]
< 100 | 100 to 1000 | CO[C@@H](C)c1c(Nc2ccc([C@H](N(C)C(=O)C3CCC4(CC3)OCCO4)C(F)(F)F)cc2)cnc2nc(Cl)nn12 [Compound 1.7, N-[(1S)-1-[4-({2-chloro-7-[(1S)-1-methoxyethyl]-[1,2,4]triazolo[1,5-a]pyrimidin-6-yl}amino)phenyl]-2,2,2-trifluoroethyl]-N-methyl-1,4-dioxaspiro[4.5]decane-8-carboxamide]
< 100 | 100 to 1000 | CO[C@@H](C)c1c(Nc2ccc([C@H](N(C)C(=O)[C@H]3CC[C@H](OC)CC3)C(F)(F)F)cc2)cnc2nc(Cl)nn12 [Compound 1.14, (1r,4S)—N—((S)-1-(4-((2-chloro-7-((S)-1-methoxyethyl)-[1,2,4]triazolo[1,5-a]pyrimidin-6-yl)amino)phenyl)-2,2,2-trifluoroethyl)-4-methoxy-N-methylcyclohexane-1-carboxamide]
< 100 | 100 to 1000 | COC(=O)NC1CCC(C(=O)N(C)[C@@H](c2ccc(Nc3cnc4nc(Cl)nn4c3[C@H](C)OC)cc2)C(F)(F)F)CC1 (stereo partly drawn) [Compound 1.16, methyl (4-(((S)-1-(4-((2-chloro-7-((S)-1-methoxyethyl)-[1,2,4]triazolo[1,5-a]pyrimidin-6-yl)amino)phenyl)-2,2,2-trifluoroethyl)(methyl)carbamoyl)cyclohexyl)carbamate]
< 100 | 100 to 1000 | CO[C@@H](C)c1c(Nc2ccc([C@H](N(C)C(=O)C3CCC(NC(C)=O)CC3)C(F)(F)F)cc2)cnc2nc(Cl)nn12 (stereo partly drawn) [Compound 1.17, N-[(1S)-1-[4-({2-chloro-7-[(1S)-1-methoxyethyl]-[1,2,4]triazolo[1,5-a]pyrimidin-6-yl}amino)phenyl]-2,2,2-trifluoroethyl]-4-acetamido-N-methylcyclohexane1-carboxamide]
